The test system of data set [1] is metastatic colorectal cancer. Nature of the data set: Phase III randomized trial, bevacizumab added to bolus IFL, first-line: efficacy. The note with it: for Overall response rate: complete and partial responses, RECIST; for Median duration of response: in vivo; for Progression-free survival: median; for Median survival: overall survival, primary end point, bevacizumab 5 mg/kg every 2 wk or placebo with IFL. The format is in vivo, human. From the text:
The trial enrolled over 900 patients with histologically confirmed, previously untreated, bi-dimensionally measurable metastatic colorectal cancer.
Eligible patients had histologically confirmed metastatic colorectal carcinoma, with bidimensionally measurable disease. Other inclusion criteria included an age of at least 18 years, an Eastern Cooperative Oncology Group (ECOG) performance status of 0 or 1 (Oken et al. (1982) Am. J. Clin. Oncol. 5:649-55), a life expectancy of more than three months, and written informed consent. Adequate hematologic, hepatic, and renal function (including urinary excretion of no more than 500 mg of protein per day) was also required.
Exclusion criteria included prior chemotherapy or biologic therapy for metastatic disease (adjuvant or radiosensitizing use of fluoropyrimidines with or without leucovorin or levamisole more than 12 months before study entry was permitted), receipt of radiotherapy within 14 days before the initiation of study treatment, major surgery within 28 days before the initiation of study treatment, clinically significant cardiovascular disease, clinically detectable ascites, pregnancy or lactation, regular use of aspirin (more than 325 mg per day) or other nonsteroidal […] agents, preexisting bleeding diatheses or coagulopathy or the need for full-dose anticoagulation, and known central nervous system metastases.
Eligible patients were assigned to treatment with the use of a dynamic randomization algorithm that was designed to achieve overall balance between groups; randomization was stratified according to study center, baseline ECOG performance status (0 vs. 1), site of primary disease (colon vs. rectum), and number of metastatic sites (one vs. more than one).
Tumor responses and progression were determined with the use of the Response Evaluation Criteria in Solid Tumors. Therasse et al. (2000) J. Natl. Cancer Inst. 92:205-16. […] No crossovers were allowed in the group given IFL plus placebo.
Bevacizumab (or placebo) was administered concomitantly with chemotherapy. […] Standard intracycle and intercycle dose modifications of irinotecan and fluorouracil (according to the package insert)’ were permitted in patients with treatment-related adverse events. The doses of leucovorin and bevacizumab were not altered.
After the baseline evaluation, tumor status was assessed every 6 weeks for the first 24 weeks of the study and then every 12 weeks for the remainder of therapy. All complete and partial responses required confirmation at least four weeks after they were first noted.
The primary outcome measure was the duration of overall survival; survival was measured without regard to subsequent treatments. There was no crossover between groups, however. Survival analysis techniques such as the Kaplan-Meier method, log-rank test, and Cox proportional hazards model were used. Secondary outcome measures were progression-free survival, objective response rates (complete and partial responses), the duration of responses, and the quality of life.
For patients who were alive at the time of analysis, data on survival were censored at the time of the last contact. […] For patients without disease progression at the time of the final analysis, data on progression-free survival were censored at the last assessment of tumor status or on day 0 if no further assessment was performed after baseline. Patients without adequate follow-up data were categorized as having no response.
All calculations were performed with the log-rank test and involved two-sided P values, with an alpha value of 0.05, a statistical power of 80 percent, and one interim analysis of efficacy.
(§1) Efficacy analyses were performed according to the intention-to-treat principle. Safety analyses included all patients who received at least one dose of study medication.

In data set [2] the test system is metastatic colorectal cancer. Nature of the data set: Phase III randomized trial, bevacizumab added to bolus IFL: safety (adverse events, NCI Common Toxicity Criteria v2). It is filed as in vivo. As to the method:
Safety was assessed on the basis of reports of adverse events, laboratory-test results, and vital sign measurements. Adverse events were categorized according to the Common Toxicity Criteria of the National Cancer Institute, version 2, in which a grade of 1 indicates mild adverse events, a grade of 2 moderate adverse events, a grade of 3 […] adverse events, and a grade of 4 life-threatening adverse events.
as §1

Another data set deals with CRC. The note with it: retrospective subset analysis; cited from earlier work.
Data set [3] deals with metastatic colorectal cancer. Description: Phase II randomized trial, bevacizumab added to bolus 5-FU/LV, first-line, non-optimal candidates for irinotecan: efficacy and quality of life. The format is in vivo, human. The source says:
Patients with histologically confirmed, previously untreated, measurable metastatic colorectal cancer were eligible if, in the judgment of the investigator, they were not optimal candidates for first-line irinotecan-containing therapy and had at least one of the following characteristics: age above 65 years, ECOG PS of 1 or 2, serum albumin equal or less than 3.5 g/dL, or prior radiotherapy to abdomen or pelvis. […] All patients provided written informed consent for their participation.
A dynamic randomization algorithm was utilized to achieve balance overall and within each of the following categories: study center, baseline ECOG performance status (0 vs. ≧1), site of primary disease (colon vs. rectum), and number of metastatic sites (1 vs. >1). The 5-FU/LV treatment, comprising LV 500 mg/m^2 over 2 hours and 5-FU 500 mg/m^2 as a bolus midway through the LV infusion (Roswell Park regimen; Petrelli et al. (1989) J. Clin. Oncol. 7:1419-1426), was administered weekly for the first 6 weeks of each 8-week cycle. Chemotherapy was continued until study completion (96 weeks) or disease progression. […] At the time of disease progression, patients were unblinded to their treatment assignment and could receive any second-line treatment at the discretion of the investigator. […] After completing the study, patients were followed for any subsequent treatment and survival every 4 months until death, loss to follow-up, or termination of the study.
Patients underwent an assessment of tumor status at baseline and at completion of every 8-week cycle using appropriate radiographic techniques, typically spiral CT scanning. Tumor response, or progression, was determined by both the investigator and an independent radiology facility (IRF) utilizing the Response Evaluation Criteria in Solid Tumors. Therasse et al. (2000). The IRF assessment was performed without knowledge of the treatment assignment or investigator assessment. In addition, patients completed the Functional Assessment of Cancer Therapy—Colorectal (FACT-C), Version 4, a validated instrument for assessing quality of life (QOL) in colorectal cancer patients, at baseline and prior to each treatment cycle until disease progression. Ward et al. (1999) Qual. Life Res. 8:181-195.
The primary outcome measure was duration of overall survival. Secondary outcome measures included progression-free survival, objective response rate (complete and partial), response duration, and change in the FACT-C QOL score. Survival duration was defined as the time from randomization to death. For patients alive at the time of analysis, duration of survival was censored at the date of last contact. Progression-free survival was defined as the time from randomization to the earlier of disease progression or death on study, defined as death from any cause within 30 days of the last dose of study drug or chemotherapy. For patients alive without disease progression at the time of analysis, progression-free survival was censored at their last tumor assessment, or day 1 (the first day of study treatment) if no postbaseline assessment was performed. In the analysis of objective response, patients without tumor assessments were categorized as nonresponders. Disease progression and response analyses were based on the IRF assessments. Change in quality of life was analyzed as time to deterioration in QOL (TDQ), defined as the length of time from randomization to a the earliest of a ≧3-point decrease from baseline in colon-cancer specific FACT-C subscale score (CCS), disease progression, or death on study. TDQ was also determined for the TOI-C (sum of CCS, physical and functional well-being) and total FACT-C for changes from baseline of 7 and 9 points, respectively.
A two-tailed, log-rank test at the 0.05 level of significance with 80% power and two interim analyses were assumed in the calculations. Interim analyses were conducted by an unblinded, independent Data Monitoring Committee (DMC).

In data set [4] the test system is metastatic colorectal cancer. Description: Phase II randomized trial, bevacizumab added to bolus 5-FU/LV: safety. The format is in vivo. Here is the method: Safety was assessed from reports of adverse events, laboratory test results, and vital sign measurements. Adverse events and abnormal laboratory results were categorized using the National Cancer Institute Common Toxicity Criteria (NCI-CTC), Version 2.
A two-tailed, log-rank test at the 0.05 level of significance with 80% power and two interim analyses were assumed in the calculations. Interim analyses were conducted by an unblinded, independent Data Monitoring Committee (DMC). A safety interim analysis was conducted after 44 deaths and a second safety and efficacy interim analysis was conducted after 89 deaths. The interim efficacy analysis was governed by a formal group sequential stopping rule based on an O'Brien-Fleming spending function. Kaplan-Meier methodology was applied to estimate the median survival, progression free survival, and duration of response time for each treatment group. […] A two-sided stratified log rank test was used to compare the two groups. Stratified analyses included baseline ECOG performance status, site of primary disease, and the number of metastatic sites. Objective response rates were compared by the Chi-squared test. As exploratory analyses, the Cox proportional hazards model was used to estimate the effect of risk factors on modifications of treatment effect for duration of survival and progression-free survival. Efficacy analyses were performed on the intent-to-treat population, defined as all randomized patients. Safety analyses included all patients who received at least one dose of study drug.

In data set [5] the test system is metastatic colorectal cancer. The note with it: patients who progressed following 5-FU therapy; cited from earlier work.
The mark [6] stands for this setting: addition of bevacizumab compared with 5-FU/LV alone.

Marks after values point to notes of the source that are not given here.

Consider “IFL plus Bevacizumab: regimen of irinotecan, fluorouracil and leucovorin (IFL) given with bevacizumab 5 mg/kg every 2 wk”, for which, in data set [1] (IFL plus bevacizumab vs IFL alone), the “Absolute improvement in the response rate” value is listed as 10%. The “Reduction in the risk of death” value in data set [1] (bevacizumab group vs IFL plus placebo) amounted to 34%. Moreover, in data set [1], the Overall response rate stood at 44.8% and the “Median duration of response” value is on record as 10.4 mo. Also, in data set [1] (intention-to-treat), the One-year survival rate was found to be 74.3%, the Progression-free survival is listed as 10.6 mo and the Median survival came out at 20.3 mo. In data set [1] (part of overall response rate), this compound returned a Complete response of 3.7% and a Partial response of 41.0%. Also, the “Median duration of overall survival, subgroup with second-line oxaliplatin” value in data set [1] (patients who received second-line treatment with oxaliplatin) was found to be 25.1 months. In data set [2] (in vivo), the “Adverse event leading to hospitalization” value was 44.9%, the “Any grade 3 or 4 adverse event” value is reported as 84.9** percent, the Any thrombotic event is listed as 19.4% and the “Cases of grade 4 bleeding” value is on record as “three”. Also, in data set [2] (in vivo), the Deep thrombophletitis is 8.9%; the Gastrointestinal perforation is 1.5%; the “Gastrointestinal perforation, number of patients” value is “six”; the “Grade 3 or 4 bleeding” value was determined as 3.1%. Besides, in data set [2] (in vivo), the “Grade 3 or 4 leukopenia” value came out at 37.0%; the “Hypertension, Any” value was 22.4** percent; the “Incidence of arterial thrombotic events” value was determined as 3.3%; the “Proteinuria, Any” value is 26.5%. In data set [2] (in vivo), the “Proteinuria, Grade 2” value turned out to be 3.1%; the “Proteinuria, Grade 3” value was 0.8%; the Pulmonary embolus came to 3.6%. Besides, in data set [2] (incidence), the “Adverse event leading to death” value is given as 2.6% and the “Death within 60 days” value is 3.0%.
Turning to “5-FU/LV/Bevacizumab: 5-fluorouracil and leucovorin (Roswell Park regimen) given with bevacizumab 5 mg/kg every 2 weeks”, in the data set on CRC, the “Median survival, subset aged ≧65 years” value is recorded as 17.7 months; the “Median survival, subset with baseline PS 1 or 2” value was 15.2 months; the “Median survival, subset with serum albumin<3.5” value was 14.1 months. In data set [3] (FACT-C colon-cancer specific subscale), the “Median time to deterioration in QOL (TDQ), CCS score” value is recorded as 3.1 months. The Overall response rate in data set [3] (IRF assessment) is recorded as 26.0%. The Duration of response in data set [3] (median) is recorded as 9.2 months. Moreover, in data set [3] (median, IRF assessment), the Progression-free survival is reported as 9.2 months. This compound also showed a Median survival in data set [3] (overall survival, primary endpoint, intent-to-treat, bevacizumab 5 mg/kg every 2 weeks or placebo with 5-FU/LV (Roswell Park)) of 16.6 months. For the same compound, in data set [3] (part of overall response rate), the Complete response is listed as 0% and the Partial response is recorded as 26.0%. In addition, in data set [3] (secondary TDQ measure), the “Median TDQ, TOI-C” value is listed as 3.2 months and the “Median TDQ, total FACT-C” value was 3.6 months. In addition, in data set [4] (in vivo), the 60-day all-cause mortality was 5.0%; the “Arterial thrombotic events, number of patients” value was 10 patients; the “Bowel perforation event, number of patients” value is reported as “Two”; the “Incidence of arterial thrombotic events” value came out at 10%. Moreover, in data set [4] (in vivo), the “Proteinuria of any grade” value was found to be 38%. Further, the “Total grade 3 and 4 toxicities” value in data set [4] (safety population) stood at 87%.
For the compound `CCc1c2c(nc3ccc(OC(=O)N4CCC(N5CCCCC5)CC4)cc13)-c1cc3c(c(=O)n1C2)COC(=O)[C@]3(O)CC` [irinotecan], in data set [5], the “Prolongation of survival vs best supportive care” value is 2.8 month and the “Prolongation of survival vs infusional 5-FU” value is 2.2 month.
In the case of “bevacizumab: recombinant humanized anti-VEGF monoclonal antibody generated according to Presta et al. (1997)”, in data set [3] (FACT-C), the “Effect on quality of life” value is reported as “no detrimental effect”. In data set [3] (setting [6]), the “Prolongation of median survival” value is on record as 3.7 months, the “Prolongation of progression-free survival” value was determined as 3.7 months and the “Prolongation of response duration” value amounted to 2.4 months. In addition, in data set [1] (IFL plus bevacizumab vs IFL plus placebo), the “Increase in the median duration of survival attributable to bevacizumab” value is recorded as 4.7 months. Besides, in data set [1], the Overall response rate is on record as 44.8% and the “Median duration of response” value stood at 10.4 mo. For the same compound, in data set [1] (intention-to-treat), the Progression-free survival was found to be 10.6 mo and the Median survival was 20.3 mo.
